Reference: patent US9782412B2, “Preventive and/or therapeutic agent of immune disease” (TAIHO PHARMACEUTICAL CO., LTD., priority 2015, dated 2017)

Key:
[1] = system: RBL-2H3 cells; test: Inhibitory activity against allergic reaction using RBL-2H3 cells (PGD2 production); format: cell-based, rat; conditions: Rattus norvegicus, RBL-2H3, RBL-2H3 cells, anti-DNP IgE / DNP-BSA; read-out: PGD2 production inhibitory concentration (IC50; (nM))
Procedure: Rat basophilic leukemia cells, RBL-2H3, were suspended in MEM medium containing 10% FBS, and then the cells were inoculated in a culture plate, and cultured in a CO2 incubator (Sanyo Electric Biomedical Co., Ltd.) at 37° C. for 12 hours. After a culture supernatant was removed and the cells were washed, an anti-DNP-mouse IgE (Alpha Diagnostic Inc.) solution was added thereto, and the cells were cultured in the CO2 incubator for 1 hour. After a culture supernatant was removed and the cells were washed, an MEM medium was added thereto.
Further, a DNP-BSA (LSL, Inc.) solution was added thereto and the cells were cultured in the CO2 incubator for 15 minutes. A culture supernatant was collected and reacted, with PGD2-MOX EIA kit (Cayman Chemical Inc.) on the basis of the protocol attached thereto, and absorbance was measured by SUNRISE RAINBOW THERMO (TECAM Inc.).

[2] = system: TNP-IgE mice; test: Mouse antigen-induced dermatitis model; format: in vivo; conditions: for Ear swelling control ratio (%): 30 minutes before allergen, 2 hours after antigen
Excerpt: Type I allergy models accompanied by a skin symptom (a dermatitis model) were produced, with TNP-IgE mice (CLEA Japan, Inc.). The mice are genetically modified BALB/c mice that constantly produce an IgE specific to hapten TNP (trinitrophenol) which is widely used as an allergen (antigen). It is possible to induce an allergic reaction in the mice, only by administering an allergen, without carrying out an immunization. […] An average value of thickening values of both ears was obtained as a value of an individual (provided that a previous value before the allergen application was 0 mm).
Ear swelling control ratio (%) was calculated by the following formula. Ear swelling control ratio (%)=(1−(Average value of ear thickening of compound administered group)/(Average value of ear thickening of vehicle administered group))×100

[3] = target: T1, recombinant human BTK protein (Homo sapiens, UniProt Q06187); test: Measurement of BTK inhibitory activity (in vitro); format: biochemical; conditions: ATP 45 μM, 40 minutes at 25° C.
T1 construct: purchased Carna Biosciences, Inc
Excerpt: Regarding the setting of the conditions for a method for measuring the inhibitory activity of a compound against BTK kinase activity in vitro, it is described in the consumable reagent supplies price list for LabChip (registered trademark) series of PerkinElmer, Inc. that FL-PEPTIDE 2 corresponds to a substrate peptide for the measurement of BTK kinase activity. Therefore, FL-PEPTIDE 2 was used as a substrate. The purified recombinant human BTK protein used in the test was purchased from Carna Biosciences, Inc.
Regarding the measurement of the inhibitory activity of the compounds, firstly, the compounds of the present invention were diluted stepwise with DMSO. Subsequently, BTK protein, a substrate peptide (final concentration was 1 μM), magnesium chloride (final concentration was 10 mM), ATP (final concentration was 45 μM), and a DMSO solution of the compounds of the present invention (final concentration of DMSO was 5%) were added to a buffer solution for kinase reaction (20 mM HEPES (pH 7.5), 2 mM dithiotheitol, 0.01% Triton X-100), and after the solution was incubated for 40 minutes at 25° C., a kinase reaction was carried out. The reaction was terminated by adding EDTA thereto so as to obtain a final concentration of 30 mM. Finally, a substrate peptide that was not phosphorylated (S) and a phosphorylated peptide (P) were separated and detected by microchannel capillary electrophoresis with a LabChip EZ Reader II (PerkinElmer, Inc.).

[4] = system: A431 cells/TMD8 cells; test: Proliferation inhibitory activity against cell lines expressing BTK and EGFR, comparison of selectivity; format: cell-based, human; conditions: cells cultured three days with compound, CELLTITER GLO
Excerpt: TMD8 cells, which are of a diffuse large B-cell lymphoma cell line expressing BTK, were suspended in RPMI1640 medium (Life Technologies Corp.) containing 10% fetal bovine serum. A431 cells, which are of an EGFR-overexpressing, highly activated human epidermoid carcinoma cell line, were suspended in DMEM, high glucose medium (Life Technologies Corp.) containing 10% fetal bovine serum. The cell suspensions were inoculated into each well of 384-well flat-bottomed microplates, and the cells were cultured for one day at 37° C. in an incubator containing 5% carbon dioxide gas. […] A DMSO solution of the test compounds was diluted with the medium used in the suspension of the each cell, and this was added to each of the wells of the cell culture plates such that the final concentration of DMSO would be 0.2%. The cells were further cultured for three days at 37° C. in an incubator containing 5% carbon dioxide gas. […] Proliferation inhibition ratio (%)=(C−T)/(C−C0)×100
T: Luminescence intensity of a well in which the test compound was added
C: Luminescence intensity of a well in which the test compound was not added
C0: Luminescence intensity of a well measured before the addition of the test compound
When a comparison is made between the cell proliferation inhibitory activity against A431 cells that depends on the EGFR proliferation signaling and the cell proliferation inhibitory activity against TMD8 cells that depends on the BTK proliferation signaling, the influence of the respective kinases at a cellular level is able to be evaluated. That is, when the “A431 cell proliferation inhibition ratio/TMD8 cell proliferation inhibition ratio” is calculated, it is contemplated that as the value of the ratio is larger, the selectivity to BTK over EGFR in the cells is higher.

[5] = system: EGFR/BTK; test: BTK inhibition selectivity compared with EGFR kinase inhibitory activity (in vitro); format: biochemical, human; conditions: ratio of IC50 values
Procedure: Therefore, a biotinated peptide (biotin-[…]) was produced by referring to the amino acid sequence of the peptide. The purified recombinant human EGFR protein used in the test was purchased from Carna Biosciences, Inc.
Regarding the measurement of the inhibitory activity of the compounds, firstly, the compounds of the present invention were diluted stepwise with DMSO. […] The reaction was terminated by adding EDTA thereto so as to obtain a final concentration of 24 mM. Subsequently, a detection liquid containing Eu-labeled anti-phosphorylated tyrosine antibody PT66 (PerkinElmer, Inc.) and SureLight APC-SA (PerkinElmer, Inc.) was added thereto, and the system was left to stand for 2 hours or longer at room temperature.

T1 sequence (Q06187 whole entry): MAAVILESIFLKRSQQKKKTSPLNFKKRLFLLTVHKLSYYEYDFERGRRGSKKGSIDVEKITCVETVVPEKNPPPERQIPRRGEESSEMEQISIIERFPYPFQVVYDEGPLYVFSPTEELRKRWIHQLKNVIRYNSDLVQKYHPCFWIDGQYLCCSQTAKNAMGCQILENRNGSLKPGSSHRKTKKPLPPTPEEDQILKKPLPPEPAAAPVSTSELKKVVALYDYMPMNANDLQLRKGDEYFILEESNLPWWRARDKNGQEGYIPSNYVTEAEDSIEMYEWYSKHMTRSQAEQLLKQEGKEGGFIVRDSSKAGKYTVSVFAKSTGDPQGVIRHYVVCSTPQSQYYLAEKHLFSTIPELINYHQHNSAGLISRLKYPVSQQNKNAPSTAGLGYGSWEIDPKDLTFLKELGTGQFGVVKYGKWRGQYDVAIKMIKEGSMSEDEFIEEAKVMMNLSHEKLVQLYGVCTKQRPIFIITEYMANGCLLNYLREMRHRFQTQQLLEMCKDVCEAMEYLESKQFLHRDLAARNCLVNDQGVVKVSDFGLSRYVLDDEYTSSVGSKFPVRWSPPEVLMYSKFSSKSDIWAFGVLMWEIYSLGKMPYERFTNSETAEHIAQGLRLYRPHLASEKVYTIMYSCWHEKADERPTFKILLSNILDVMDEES

| SMILES | IC50 [3] | EGFR inhibitory activity IC50 value (nM)/BTK inhibitory activity IC50 value (nM) [5] | also measured |
| --- | --- | --- | --- |
| C=CC(=O)N1CCC[C@@H](n2nc(C(=O)Nc3nc4cc(Cl)ccc4o3)c3c(N)ncnc32)C1 [Example 1, (R)-1-(1-acryloylpiperidin-3-yl)-4-amino-N-(5-chlorobenzo[d]oxazol-2-yl)-1H-pyrazolo[3,4-d]pyrimidine-3-carboxamide] |  |  | IC50 [1]: 37 nM; Ear swelling control ratio (%) ([2]; 1 mg/kg oral): 66%; Ear swelling control ratio (%) ([2]; 3 mg/kg oral): 81%; ear swellings induced by the allergen application ([2]; from low dose, compared with Reference compound 1): suppressed equivalently or strongly ear swellings |
| C=C(C)C(=O)N1CCC[C@@H](n2nc(C(=O)Nc3nc4cc(F)ccc4o3)c3c(N)ncnc32)C1 [Example 11, (R)-4-amino-N-(5-fluorobenzo[d]oxazol-2-yl)-1-(1-methacryloylpiperidin-3-yl)-1H-pyrazolo[3,4-d]pyrimidine-3-carboxamide] | 2.14 nM | 1294.6 |  |
| C/C=C/C(=O)N1CCC[C@@H](n2nc(C(=O)Nc3nc4ccccc4o3)c3c(N)ncnc32)C1 [Example 14, (R,E)-4-amino-N-(benzo[d]oxazol-2-yl)-1-(1-(but-2-enoyl)piperidin-3-yl)-1H-pyrazolo[3,4-d]pyrimidine-3-carboxamide] | 14.1 nM | 128.1 | A431 cell proliferation inhibition ratio/TMD8 cell proliferation inhibition ratio [4]: >1400.6 |
| C=CC(=O)N1CC[C@@H](n2nc(C(=O)Nc3nc4ccccc4o3)c3c(N)ncnc32)C1 [Example 27, (R)-1-(1-acryloylpyrrolidin-3-yl)-4-amino-N-(benzo[d]oxazol-2-yl)-1H-pyrazolo[3,4-d]pyrimidine-3-carboxamide] | 1.43 nM |  |  |
| CN(C)C/C=C/C(=O)N1CC(n2cc(C(=O)Nc3nc4cc(Cl)ccc4o3)c3c(N)ncnc32)C1 [Example 47, (E)-4-amino-N-(5-chlorobenzo[d]oxazol-2-yl)-7-(1-(4-(dimethylamino)but-2-enoyl)azetidin-3-yl) 7H-pyrrolo[2,3-d]pyrimidine-5-carboxamide] | 7.34 nM | 20.4 |  |

More lines, main results first:

| IC50 [3] | EGFR inhibitory activity IC50 value (nM)/BTK inhibitory activity IC50 value (nM) [5] | SMILES | also measured |
| --- | --- | --- | --- |
| 0.738 nM |  | C=CC(=O)N1CCC[C@@H](n2nc(C(=O)Nc3nc4cc(C#N)ccc4o3)c3c(N)ncnc32)C1 [Example 6, (R)-1-(1-acryloylpiperidin-3-yl)-4-amino-N-(5-cyanobenzo[d]oxazol-2-yl)-1H-pyrazolo[3,4-d]pyrimidine-3-carboxamide] | A431 cell proliferation inhibition ratio/TMD8 cell proliferation inhibition ratio [4]: 2786.0; Ear swelling control ratio (%) ([2]; 3 mg/kg oral): 45% |
| 1.27 nM | 22.9 | C=CC(=O)N1CCC[C@@H](n2nc(C(=O)Nc3nc4cc(CCOC)ccc4o3)c3c(N)ncnc32)C1 [Example 8, (R)-1-(1-acryloylpiperidin-3-yl)-4-amino-N-(5-(2-methoxyethyl)benzo[d]oxazol-2-yl)-1H-pyrazolo[3,4-d]pyrimidine-3-carboxamide] |  |
| 0.777 nM | 147.4 | CN(C)C/C=C/C(=O)N1CCC[C@@H](n2nc(C(=O)Nc3nc4cc(-c5cccs5)ccc4o3)c3c(N)ncnc32)C1 [Example 21, (R,E)-4-amino-N-(5-(thiophen-2-yl)benzo[d]oxazol-2-yl)-1-(1-(4-(dimethylamino)but-2-enoyl)piperidin-3-yl)-1H-pyrazolo[3,4-d]pyrimidine-3-carboxamide] |  |
| 0.888 nM |  | C=CC(=O)N1CC[C@@H](n2nc(C(=O)Nc3nc4cc(OC)ccc4o3)c3c(N)ncnc32)C1 [Example 38, (R)-1-(1-acryloylpyrrolidin-3-yl)-4-amino-N-(5-methoxybenzo[d]oxazol-2-yl)-1H-pyrazolo[3,4-d]pyrimidine-3-carboxamide] |  |
| 1.25 nM |  | C=CC(=O)N1CC(n2nc(C(=O)Nc3nc4cc(Cl)ccc4o3)c3c(N)ncnc32)C1 [Example 45, 1-(1-acryloylazetidin-3-yl)-4-amino-N-(5-chlorobenzo[d]oxazol-2-yl)-1H-pyrazolo[3,4-d]pyrimidine-3-carboxamide] |  |
